The record followed here is PubChem BioAssay (NCI).

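Exposure lasted 48 hours, with cells grown in 96-well plates and compounds tested at five concentrations. Definition used: TGI = concentration required for complete inhibition of growth.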

Holding throughout (assay): DTP human tumour cell line panel, 48 h
Assay [1] concerns 786-0 renal.
The subject of assay [2] is CAKI-1 renal.
For assay [3], the system named is HCC-2998 colon.
In assay [4] the test system is HL-60(TB) leukemia.
Assay [5] has as its system HS 578T breast.
Assay [6] concerns K-562 leukemia.
The subject of assay [7] is KM12 colon.
Assay [8] has as its system MCF7 breast.
Assay [9] has as its system MDA-MB-231 breast.
For assay [10], the system named is MOLT-4 leukemia.
The subject of assay [11] is NCI-H226 lung.
The subject of assay [12] is NCI-H460 lung.
The subject of assay [13] is NCI/ADR-RES ovarian.
The test system of assay [14] is OVCAR-8 ovarian.
Assay [15] deals with PC-3 prostate.
In assay [16] the test system is SF-268 CNS.
Assay [17] has as its system SF-295 CNS.
In assay [18] the test system is SN12C renal.
Assay [19] deals with SNB-75 CNS.

Usually TGI stands for the concentration at which net growth stops. As to `C1CSCCSCCSCCSCCS1`, the TGI in assay [1], in assay [2], in [3], in [4], in assay [5] and in [6] was above 100 µM each time. Moreover, the TGI in assay [7], in assay [8], in [9], in [10], in assay [11] and in [12] was above 100 µM in each case. For the same compound, the TGI in [13], in [14], in assay [15], in assay [16], in assay [17] and in assay [18] was above 100 µM each time. This compound also came in with a TGI in [19] above 100 µM.

For `O=c1[nH][nH]c(=O)n1Cc1ccccc1`, the total growth inhibition concentration (TGI) in assay [1], in assay [2], in assay [3], in assay [4], in [5] and in assay [6] was above 100 µM in each case. Moreover, the TGI in assay [7], in assay [8], in [9], in [10], in assay [11] and in assay [12] was above 100 µM in each case. Further, the total growth inhibition concentration (TGI) in assay [13], in [14], in assay [15], in [16], in [18] and in assay [19] was above 100 µM in each case.

On to `c1ccc2c(c1)CCN1CCc3ccccc3C1C2` (centres undefined), for which the TGI in assay [1], in assay [2], in assay [3], in assay [4], in assay [5] and in assay [6] was above 100 µM in each case. For the same compound, the TGI is above 100 µM in assay [7]; above 100 µM in assay [8]; above 100 µM in [9]; above 100 µM in assay [10]; 93.1 µM in [11]; above 100 µM in [12]. The TGI in assay [13], in [14], in assay [15], in assay [16], in assay [17] and in assay [18] was above 100 µM throughout. Further, the total growth inhibition concentration (TGI) in assay [19] is above 100 µM.

As to `CN(C)c1n2c3ccc([N+](=O)[O-])cc3n3c(N(C)C)[n+]4ccccc4c3c2c2cccc[n+]12`, the TGI in [1], in assay [2], in assay [3], in [4], in [5] and in assay [6] was above 100 µM throughout. The TGI in assay [7], in assay [8], in assay [9], in assay [10], in assay [11] and in assay [12] was above 100 µM throughout. For the same compound, the TGI in assay [13], in [14], in [15], in assay [16], in assay [17] and in assay [18] was above 100 µM throughout. The compound also gave a TGI in assay [19] above 100 µM.

Turning to `CC1(C)CC(=O)c2c(-c3ccc(Cl)cc3)c(C#N)c(=S)n(C3OC(CO)C(O)C(O)C3O)c2C1` (centres undefined), the concentration for total growth inhibition (TGI) in [1] was above 100 µM; in assay [2], above 100 µM; in [3] it was above 100 µM; in [4], above 100 µM; in assay [5], above 100 µM; in assay [6] it was 57.3 µM. For the same compound, the TGI is above 100 µM in assay [7]; above 100 µM in assay [8]; above 100 µM in assay [9]; above 100 µM in assay [10]; 73 µM in [11]; above 100 µM in [12]. The TGI in [13] was above 100 µM; in assay [14], above 100 µM; in assay [15], 52.1 µM; in assay [16] it was above 100 µM; in [17], above 100 µM; in assay [18], above 100 µM. Besides, the TGI in assay [19] amounted to 98.4 µM.

Consider `Cc1ccc(NC(=O)c2cccc(OP(=O)(Nc3ccc(C)cc3)Nc3ccc(C)cc3)c2)cc1`, for which the TGI in assay [1] was above 100 µM; in assay [2], above 100 µM; in assay [3] it was above 100 µM; in assay [4], above 100 µM; in assay [5], 79.9 µM; in assay [6], above 100 µM. The TGI in assay [7] was above 100 µM; in [8] it was above 100 µM; in assay [9], 16.1 µM; in assay [10], 6.37 µM; in [11] it was 63.6 µM; in assay [12], above 100 µM. Also, the TGI in assay [13], in [14], in assay [15], in assay [16], in assay [17] and in assay [18] was above 100 µM each time. Further, the TGI in [19] was determined as 30.6 µM.

Turning to `COc1ccc(COCC[C@H](C)OC2OC(CO[Si](C)(C)C(C)(C)C)C(O)C(O)C2O)cc1` (some centres undefined), the TGI in assay [1], in [2], in assay [3], in assay [4], in [5] and in assay [6] was above 100 µM in each case. The TGI in assay [7], in assay [8], in assay [9], in assay [10], in assay [11] and in [12] was above 100 µM each time. In addition, the TGI in assay [13], in [14], in assay [15], in assay [16], in assay [17] and in [18] was above 100 µM each time. The compound also returned a TGI in [19] above 100 µM.

Take `O=[N+]([O-])C(C(Cl)=C(Cl)Cl)=C(N1CCCCC1)N1CCCCC1`: the concentration for total growth inhibition (TGI) in [1] was above 100 µM; in assay [2], above 100 µM; in [3], above 100 µM; in assay [4] it was above 100 µM; in [5], 70.8 µM; in [6], above 100 µM. Moreover, the total growth inhibition concentration (TGI) in [7], in [8], in [9], in [10], in assay [11] and in assay [12] was above 100 µM each time. The TGI in assay [13], in assay [14], in assay [15], in assay [16], in assay [17] and in assay [18] was above 100 µM throughout. In assay [19], the TGI was above 100 µM.

`CC(C)N(C(C)C)S(=O)(=O)CC12CCC(C/C1=N\O)C2` (centres undefined): the TGI in [1], in assay [2], in assay [3], in [4], in assay [5] and in [6] was above 100 µM throughout. Besides, the TGI in [7], in assay [8], in assay [9], in assay [10], in assay [11] and in assay [12] was above 100 µM throughout. For the same compound, the TGI in [13], in [14], in assay [15], in assay [16], in assay [17] and in assay [18] was above 100 µM throughout. Also, the concentration for total growth inhibition (TGI) in [19] is above 100 µM.

Take `COc1ccc(/C(C)=C2\CCCN(Cc3ccccc3)C2)cc1`: the concentration for total growth inhibition (TGI) in assay [1] turned out to be 33.9 µM; in assay [2], 58.4 µM; in assay [3], 44.7 µM; in assay [4], 47.5 µM; in [5], 29.2 µM; in assay [6] it was 63.4 µM. The TGI was found to be 33.3 µM in assay [7]; 37.8 µM in [8]; 57.9 µM in assay [9]; 59.8 µM in [10]; 63.6 µM in [11]; 53.5 µM in assay [12]. For the same compound, the total growth inhibition concentration (TGI) is 57.5 µM in assay [13]; 35.9 µM in [14]; 62.7 µM in assay [15]; 40.6 µM in assay [16]; 35.1 µM in assay [17]; 73.1 µM in [19].

On to `CNC(=O)O/N=C1\N(C)CN(c2ccccc2)C12CCN(CCCC(=O)c1ccc(F)cc1)CC2`, for which the TGI in assay [1], in assay [2], in [3], in assay [4], in assay [5] and in assay [6] was above 100 µM throughout. Moreover, the TGI in [7] was 81.7 µM; in assay [8], above 100 µM; in assay [9], above 100 µM; in assay [10], above 100 µM; in assay [11], above 100 µM; in assay [12], above 100 µM. For the same compound, the total growth inhibition concentration (TGI) in assay [13], in assay [14], in [15], in assay [16], in assay [17] and in [18] was above 100 µM each time. Besides, in assay [19], the TGI amounted to 24.3 µM.

Take `CCOC(=O)c1c2ccccc2n2c(=O)n(-c3ccc(OC)cc3)nnc12`: the TGI in assay [1] was 51.1 µM; in assay [2], above 79.9 µM; in assay [3], above 100 µM; in [4] it was above 100 µM; in [5], 55.9 µM; in [6] it was above 100 µM. Also, the TGI was above 100 µM in assay [7]; above 67.9 µM in [8]; above 100 µM in assay [9]; 87.9 µM in assay [11]; above 100 µM in [12]; above 100 µM in [13]. Besides, the TGI was 97.1 µM in assay [14]; above 66.1 µM in assay [15]; 45.7 µM in assay [16]; above 62.5 µM in assay [17]; above 100 µM in assay [18]; 35.9 µM in [19].

For the compound `Nc1c(F)c(F)c2c(c1F)N(CCCCCl)c1ccccc1S2`, the TGI in assay [1], in [2], in assay [3], in [4], in assay [5] and in assay [6] was above 100 µM in each case. Moreover, the TGI in assay [7], in assay [8], in assay [9], in assay [10], in assay [11] and in assay [12] was above 100 µM in each case. For the same compound, the concentration for total growth inhibition (TGI) in assay [13], in [15], in assay [16], in assay [17], in [18] and in assay [19] was above 100 µM in each case.

As for `Cc1cc(NS(=O)(=O)c2ccc(NO)cc2)no1`, the TGI was above 100 µM in assay [1]; above 100 µM in assay [2]; above 100 µM in assay [3]; above 100 µM in assay [4]; above 100 µM in assay [5]; 43.7 µM in assay [6]. In addition, the TGI in [7] was above 100 µM; in assay [8], 47.1 µM; in [9], above 100 µM; in assay [10] it was above 100 µM; in assay [11], above 100 µM; in assay [12] it was above 100 µM. Also, the TGI in assay [13] was above 100 µM; in [14], above 100 µM; in assay [15], above 100 µM; in assay [16] it was above 100 µM; in assay [18], 43 µM; in assay [19], above 100 µM.

Consider `Cc1cc2c(cc1Cl)SC(NNCCO)=NS2(=O)=O`, for which the TGI in assay [1], in [2], in assay [3], in assay [4], in assay [5] and in assay [6] was above 100 µM throughout. In addition, the TGI in [7], in [8], in [9], in assay [10], in [11] and in assay [12] was above 100 µM in each case. Moreover, the TGI in assay [13], in [14], in assay [15], in [16], in [17] and in [19] was above 100 µM each time.
